The record followed here is ChEMBL document CHEMBL4477199, “Design and synthesis of novel bicalutamide and enzalutamide derivatives as antiproliferative agents for the treatment of prostate cancer” (Eur J Med Chem, 2016).

One data set relates to CWR22R. The data set can be described thus: Antiproliferative activity against human 22Rv1 cells after 96 hrs by propidium iodide staining based fluorescence 2D monolayer assay. It counts as functional, cell-based. Conditions: 22Rv1, 96 h.
For the next data set, the system named is DU-145. The data set can be described thus: Antiproliferative activity against human DU145 cells after 96 hrs by propidium iodide staining based fluorescence 2D monolayer assay. Format: functional, cell-based. Conditions: DU-145, 96 h.
The next data set relates to LNCaP. The data set can be described thus: Antiproliferative activity against human LNCAP cells after 96 hrs by propidium iodide staining based fluorescence 2D monolayer assay. It counts as functional, cell-based.
The next data set has as its system VCaP. The data set can be described thus: Antiproliferative activity against human VCaP cells after 96 hrs by propidium iodide staining based fluorescence 2D monolayer assay. Format: functional, cell-based.
The conditions of data set [1]: 96 h.
Description: Solubility in RPMI1640 culture medium at <30 uM incubated for 4 days by microscopic analysis
For data set [2] the following is noted: 33000 µM.
Description: Solubility in 100% DMSO at 33 mM at -20 degC

The IC50 is the point on the concentration scale where inhibition reaches its midpoint. On to `CC(O)(COc1ccc(C(F)(F)F)cc1)C(=O)Nc1ccc(C#N)cc1C(F)(F)F` (stereo unspecified), for which the half-inhibitory concentration (IC50) with CWR22R came out at 29.9 µM; with DU-145, 32.4 µM; with LNCaP, 28.6 µM; in the data set on VCaP, 23 µM. For the same molecule, the solubility entry in data set [1] and in data set [2] was “Soluble” each time.
As for `CC(O)(COc1ccc(C(F)(F)F)cn1)C(=O)Nc1ccc([N+](=O)[O-])c(C(F)(F)F)c1` (stereo unspecified), the IC50 in the data set on CWR22R amounted to 35.2 µM; in the data set with DU-145 it was 100 µM; with LNCaP it was 36.5 µM; with VCaP, 100 µM. Moreover, the solubility entry in data set [1] and in data set [2] was “Soluble” throughout.
With `CC(O)(CSc1cccc(C(F)(F)F)c1)C(=O)Nc1ccc([N+](=O)[O-])cc1C(F)(F)F` (stereo unspecified), the IC50 came to 12.6 µM in the data set with CWR22R, 14.3 µM in the data set on DU-145, 10.1 µM in the data set with LNCaP and 16.5 µM in the data set with VCaP. Besides, the solubility result in data set [1] and in data set [2] was “Soluble” in each case.
With `CC(O)(CSc1ccc(C(F)(F)F)cc1)C(=O)Nc1ccc(C#N)cc1C(F)(F)F` (stereo unspecified), the solubility entry in data set [1] and in data set [2] was “Soluble” each time.
`C[C@](O)(CSc1ccc(OC(F)(F)F)cc1)C(=O)Nc1ccc(C#N)c(C(F)(F)F)c1`: the IC50 in the data set with CWR22R came to 28.8 µM; in the data set on DU-145, 29.8 µM; in the data set on LNCaP, 19.8 µM; in the data set with VCaP it was 17.4 µM. Further, the solubility entry in data set [1] and in data set [2] was “Soluble” throughout.
With `CC(O)(CSc1cc(C(F)(F)F)ccn1)C(=O)Nc1ccc([N+](=O)[O-])cc1C(F)(F)F` (stereo unspecified), the concentration for half-maximal inhibition (IC50) in the data set on CWR22R was 11.5 µM; in the data set on DU-145 it was 14 µM; with LNCaP, 5.52 µM; in the data set with VCaP, 17.4 µM. Moreover, the solubility entry in data set [1] and in data set [2] was “Soluble” in each case.
Take `CC(O)(CSc1ccc(C(F)(F)F)cc1)C(=O)Nc1ccc(C#N)c(C(F)(F)F)c1` (stereo unspecified): the solubility entry in data set [1] and in data set [2] was “Soluble” throughout.
Take `CC(O)(COc1ccc(C(F)(F)F)cn1)C(=O)Nc1ccc(C#N)cc1C(F)(F)F` (stereo unspecified): the IC50 in the data set on CWR22R, with DU-145, in the data set with LNCaP and in the data set on VCaP was 100 µM each time. Further, the solubility result in data set [1] and in data set [2] was “Soluble” in each case.
As to `CC(O)(CS(=O)(=O)c1ccc(C(F)(F)F)cc1)C(=O)Nc1ccc([N+](=O)[O-])cc1C(F)(F)F` (stereo unspecified), the IC50 came out at 25.4 µM in the data set with CWR22R, 40.9 µM with DU-145, 29.3 µM in the data set with LNCaP and 46.9 µM in the data set with VCaP. For the same molecule, the solubility entry in data set [1] and in data set [2] was “Soluble” each time.
As to `CC(O)(CS(=O)(=O)c1ccccc1C(F)(F)F)C(=O)Nc1ccc(C#N)c(C(F)(F)F)c1` (stereo unspecified), the IC50 in the data set on CWR22R is 46.6 µM; in the data set on DU-145, 55 µM; in the data set on LNCaP, 42.7 µM; in the data set with VCaP, 58.6 µM. For the same molecule, the solubility result in data set [1] and in data set [2] was “Soluble” each time.
Turning to `CC(O)(CSc1cccc(C(F)(F)F)c1)C(=O)Nc1ccc(C#N)cc1C(F)(F)F` (stereo unspecified), the IC50 with CWR22R amounted to 15.2 µM; in the data set on DU-145, 21.1 µM; in the data set on LNCaP it was 11.3 µM; in the data set on VCaP, 23.5 µM. The solubility result in data set [1] and in data set [2] was “Soluble” in each case.
Regarding `CC(O)(CSc1ccc(C(F)(F)F)cn1)C(=O)Nc1ccc(C#N)c(C(F)(F)F)c1` (stereo unspecified), the IC50 stood at 53.9 µM in the data set with CWR22R, 84.1 µM in the data set with DU-145, 80.7 µM in the data set with LNCaP and 89.3 µM with VCaP. The solubility entry in data set [1] and in data set [2] was “Soluble” each time.
For `CC(O)(COc1cccc(C(F)(F)F)c1)C(=O)Nc1ccc(C#N)cc1C(F)(F)F` (stereo unspecified), the IC50 is 18.7 µM in the data set with CWR22R, 32.1 µM in the data set on DU-145, 15.2 µM in the data set with LNCaP and 21.6 µM in the data set with VCaP. Further, the solubility result in data set [1] and in data set [2] was “Soluble” each time.
Consider `CC(O)(COc1ccc(C(F)(F)F)cc1)C(=O)Nc1ccc([N+](=O)[O-])cc1C(F)(F)F` (stereo unspecified), for which the IC50 in the data set on CWR22R came out at 18.9 µM; in the data set with DU-145, 22.1 µM; in the data set on LNCaP, 13.6 µM; in the data set with VCaP, 18.6 µM. In addition, the solubility entry in data set [1] and in data set [2] was “Soluble” throughout.
Take `CC(O)(COc1ccc(C#N)c(F)c1)C(=O)Nc1ccc(C#N)cc1C(F)(F)F` (stereo unspecified): the IC50 in the data set on CWR22R amounted to 45.3 µM; in the data set on DU-145, 68.8 µM; with LNCaP it was 78.3 µM; in the data set with VCaP, 77.2 µM. In addition, the solubility result in data set [1] and in data set [2] was “Soluble” throughout.
Consider `C[C@](O)(CSc1ccc(F)cc1F)C(=O)Nc1ccc(C#N)c(C(F)(F)F)c1`, for which the IC50 was found to be 17.2 µM in the data set on CWR22R, 28.5 µM with DU-145, 25.2 µM in the data set with LNCaP and 18.3 µM with VCaP. In addition, the solubility result in data set [1] and in data set [2] was “Soluble” in each case.
Regarding `CC(O)(COc1cccc(C(F)(F)F)c1)C(=O)Nc1ccc(C#N)c(C(F)(F)F)c1` (stereo unspecified), the IC50 is 5.89 µM with CWR22R, 10.8 µM in the data set on DU-145, 8.31 µM with LNCaP and 9.04 µM with VCaP. Besides, the solubility result in data set [1] and in data set [2] was “Soluble” throughout.
As to `CC(O)(COc1cccc(OC(F)(F)F)c1)C(=O)Nc1ccc(C(F)(F)F)cc1` (stereo unspecified), the half-maximal inhibitory concentration (IC50) in the data set with CWR22R came to 15.4 µM; in the data set on DU-145 it was 29.4 µM; in the data set on LNCaP, 2.16 µM; in the data set on VCaP, 4.28 µM. Besides, the solubility entry in data set [1] and in data set [2] was “Soluble” each time.
As to `C[C@](O)(CSc1ccccc1C(F)(F)F)C(=O)Nc1ccc(C#N)c(C(F)(F)F)c1`, the IC50 in the data set on CWR22R was 5.3 µM; in the data set with DU-145, 7.69 µM; in the data set with LNCaP it was 7.9 µM; with VCaP, 2.95 µM.
Regarding `CC(O)(CSc1ccc(C(F)(F)F)cc1)C(=O)Nc1ccc([N+](=O)[O-])c(C(F)(F)F)c1` (stereo unspecified), the IC50 in the data set with CWR22R was determined as 16.4 µM; in the data set with DU-145, 22.5 µM; with LNCaP, 28.7 µM; in the data set with VCaP, 21.2 µM. The solubility result in data set [1] and in data set [2] was “Soluble” each time.
In the case of `CC(O)(COc1ccc(F)c(F)c1)C(=O)Nc1ccc([N+](=O)[O-])c(C(F)(F)F)c1` (stereo unspecified), the IC50 in the data set with CWR22R was determined as 18.5 µM; in the data set on DU-145, 21.6 µM; in the data set on LNCaP, 14.5 µM; in the data set on VCaP it was 18.9 µM. Further, the solubility entry in data set [1] and in data set [2] was “Soluble” each time.
On to `CC1(C)C(=O)N(c2ccc(C(F)(F)F)cc2)C(=O)N1c1cccc(C(F)(F)F)c1`, for which the IC50 in the data set with CWR22R was found to be 100 µM; in the data set on DU-145 it was 100 µM; in the data set on LNCaP, 5.95 µM; in the data set on VCaP, 72.4 µM. For the same molecule, the solubility result in data set [1] and in data set [2] was “Soluble” each time.
As to `CC(O)(CSc1ccc(OC(F)(F)F)cc1)C(=O)Nc1ccc([N+](=O)[O-])cc1C(F)(F)F` (stereo unspecified), the IC50 is 61.9 µM in the data set on CWR22R, 69.6 µM in the data set on DU-145, 100 µM in the data set on LNCaP and 100 µM with VCaP. The solubility entry in data set [1] and in data set [2] was “Soluble” each time.
On to `CC1(C)C(=O)N(c2cccc(C(F)(F)F)c2)C(=O)N1c1ccc([N+](=O)[O-])c(C(F)(F)F)c1`, for which the IC50 in the data set on CWR22R turned out to be 100 µM; in the data set on DU-145 it was 100 µM; in the data set on LNCaP, 15.2 µM; in the data set with VCaP it was 100 µM. Moreover, the solubility entry in data set [1] and in data set [2] was “Soluble” in each case.
As to `CC(O)(CS(=O)(=O)c1ccc(C(F)(F)F)cn1)C(=O)Nc1ccc([N+](=O)[O-])cc1C(F)(F)F` (stereo unspecified), the IC50 with CWR22R, in the data set with DU-145, in the data set with LNCaP and in the data set with VCaP was 100 µM each time. Besides, the solubility entry in data set [1] and in data set [2] was “Soluble” throughout.
For the molecule `CC(O)(CSc1cccc(OC(F)(F)F)c1)C(=O)Nc1ccc(C(F)(F)F)cc1` (stereo unspecified), the IC50 is 15.9 µM with CWR22R, 27.8 µM in the data set on DU-145, 13.9 µM with LNCaP and 18.8 µM in the data set with VCaP. Besides, the solubility entry in data set [1] and in data set [2] was “Soluble” in each case.
As for `CC(O)(CS(=O)(=O)c1ccc(F)cc1F)C(=O)Nc1ccc([N+](=O)[O-])cc1C(F)(F)F` (stereo unspecified), the IC50 with CWR22R is 30.2 µM; in the data set with DU-145 it was 46.6 µM; in the data set with LNCaP it was 17.9 µM; in the data set on VCaP it was 58 µM. Further, the solubility entry in data set [1] and in data set [2] was “Soluble” throughout.
As to `CC(O)(CS(=O)(=O)c1cccc(C(F)(F)F)c1)C(=O)Nc1ccc(C#N)c(C(F)(F)F)c1` (stereo unspecified), the IC50 in the data set on CWR22R worked out at 21 µM; in the data set with DU-145 it was 39.1 µM; with LNCaP, 14.9 µM; in the data set on VCaP, 39.7 µM. Further, the solubility entry in data set [1] and in data set [2] was “Soluble” throughout.
On to `CC(O)(CS(=O)(=O)c1ccc(F)cc1)C(=O)Nc1ccc(C#N)cc1C(F)(F)F` (stereo unspecified), for which the IC50 in the data set on CWR22R was determined as 77 µM; in the data set with DU-145, 100 µM; in the data set on LNCaP it was 91.6 µM; in the data set on VCaP it was 65.2 µM. The solubility entry in data set [1] and in data set [2] was “Soluble” throughout.
For `CC(O)(COc1ccc(OC(F)(F)F)cc1)C(=O)Nc1ccc(C#N)cc1C(F)(F)F` (stereo unspecified), the IC50 in the data set with CWR22R was 28 µM; with DU-145, 34.6 µM; with LNCaP, 27.7 µM; with VCaP, 22.4 µM. The solubility result in data set [1] and in data set [2] was “Soluble” in each case.
On to `C[C@](O)(CS(=O)(=O)c1ccc(F)cc1F)C(=O)Nc1ccc(C#N)c(C(F)(F)F)c1`, for which the IC50 was determined as 42.2 µM in the data set with CWR22R, 60.2 µM with DU-145, 42.3 µM in the data set with LNCaP and 60.9 µM in the data set on VCaP. The solubility entry in data set [1] and in data set [2] was “Soluble” each time.
